Source: article PMC8400343, “Synthesis and Evaluation of the Antidepressant-like Properties of HBK-10, a Novel 2-Methoxyphenylpiperazine Derivative Targeting the 5-HT1A and D2 Receptors” (Pharmaceuticals, 2021)

Key:
human 5-HT7 receptor = target: T1, human 5-HT7 receptor (Homo sapiens, UniProt P34969); experiment: Radioligand binding, [3H]-5-CT, CHO-K1 membranes; conditions: CHO-K1 cells, mean ± SEM, read-out: Serotonergic pKi 5-HT7 (converted)
T1 construct: expressed in transfected cells; host or cells: CHO-K1 (membranes)
Procedure: Radioligand binding was performed on membranes from CHO-K1 cells stably transfected with the human 5-HT1A, 5-HT2A, 5-HT6, or 5-HT7 receptors. […] Binding experiments were conducted in 96-well microplates, and the reaction mix included the solution of the test compound, radioligand, and diluted membranes or the tissue suspension.
The reaction was terminated by rapid filtration through GF/B or GF/C filter mate presoaked with 0.3% polyethyleneimine for 30 min. Ten rapid washes with 200 µl 50 mM Tris buffer (4 °C, pH 7.4) were performed using an automated harvester system Harvester-96 MACH III FM (Tomtec). […] Radioactivity was counted in the MicroBeta2 scintillation counter (PerkinElmer) at approximately 30% efficiency. […] A single assay was performed with each compound concentrations in duplicate, and the whole assay was repeated in a three independent experiments.

mice [1] = experiment: Forced swim test in naive mice; format: in vivo, mouse
Procedure: Adult male Albino-Swiss mice (CD-1, 8 weeks old, 18–21g: Jagiellonian University Medical College, Krakow, Poland) were used in all experiments. Unless stated otherwise, the animals were kept in groups of 10 mice in standard cages (37 cm × 21 cm × 15 cm) at a room temperature (22 ± 2 °C), on a 12 h light/dark cycle (lights on 7:00) with ad libitum access to food and water. Mice were used only once in each test. Behavioral experiments were performed between 8 am and 4 pm and evaluated by a trained observer blind to the treatments. Mice were handled for 1 week before starting the experimental procedures. Animals were randomly allocated to the treatment using a computer-generated sequence, and researchers making measurements on the animals or analyzing the results were blind to the allocation. Moreover, experimental groups were distributed across multiple cages, and the location of the mouse cages in the room was changed following each day.
HBK-10, WAY-100635 (Sigma, Darmstadt, Germany), p-chlorophenylalanine (pCPA; Sigma, Darmstadt, Germany), fluoxetine (Sigma, Darmstadt, Germany), reboxetine (Sigma, Darmstadt, Germany) and bupropion (Sigma, Darmstadt, Germany), were suspended in 1% Tween, and administered ip at a volume of 10 mL/kg 30 min before each behavioral test. The control groups received saline ip 30 min prior to testing. The doses of fluoxetine, reboxetine and bupropion as well as WAY-100635 and pCPA were based on our previous studies with 2-methoxyphenylpiperazine derivatives.
The experiment was performed on mice according to the method described by Porsolt et al. and as previously described. Mice were placed individually in glass cylinders (height 25 cm, diameter 10 cm) filled with water at 24 ± 1 °C to a depth of 10 cm and left there for 6 min. Following a 2 min habituation period, total time spent immobile was recorded during the next 4 min. The animal was considered as immobile when it remained floating passively in the water, making only small movements to keep its head above the water. The experiments were video-recorded and scored using elevenmaze.com software by a trained observer blind to the treatments.
To assess the involvement of a serotonergic system in the antidepressant-like activity of tested compounds in the forced swim test, the mice were pretreated with pCPA (tryptophan hydroxylase inhibitor) according to the method previously described. […]. Twenty-four hours after the last pCPA administration, we injected mice with 1% Tween ip or tested compound. We performed the forced swim test 30 min after the administration.
The putative involvement of 5-HT1A receptors in the antidepressant-like effect of tested compound was studied using WAY-100635 (a selective 5-HT1A receptor antagonist). WAY-100635 at a dose of 0.1 mg/kg was administered sc 15 min prior to the injection of HBK-10. After 30 min the forced swim test was performed. The behaviorally ineffective dose of WAY-100635 used in the experiments was based on our previous experiments.

mice [2] = experiment: Rotarod test in mice; format: in vivo, mouse
Procedure: This experimental procedure was described in detail in our earlier studies. Briefly, mice were trained on the rotarod apparatus (May Commat RR0711, Turkey; rod diameter: 2 cm) every day for 3 consecutive days. During each training session, mice were placed for 3 min on the rotating rod (24 rpm, constant speed) with an unlimited number of trials. The experiment was performed 24 h after the last training session. On the test day, mice were injected with HBK-10, and 30 min after the administration tested on the rotarod (24 rpm, constant speed). Motor impairment was regarded as the inability to remain on the rotating rod for 60 s and was expressed as the % of animals that fell off the rotating rod.

Chimney test in mice = format: in vivo, mouse; conditions: mouse, in vivo; ip, log-probit method
Procedure: (§1) The chimney test was performed as previously described. The mice were trained before the test, and only those animals able to get out of the chimney within 1 min, were used at the experimental stage. The selected mice were placed in a 25 cm long and 2.5 cm in diameter horizontally located tube, which was reversed so that the mice could leave it only by climbing up backward until they reached the other end. Motor impairment was indicated by the inability of the mice to perform the test within 60 s. The number of animals unable to climb backward within 60 s was recorded, and TD50 values were calculated.

mice [3] = experiment: Chimney test in mice; format: in vivo, mouse
Procedure: as §1

T1 sequence (P34969 whole entry): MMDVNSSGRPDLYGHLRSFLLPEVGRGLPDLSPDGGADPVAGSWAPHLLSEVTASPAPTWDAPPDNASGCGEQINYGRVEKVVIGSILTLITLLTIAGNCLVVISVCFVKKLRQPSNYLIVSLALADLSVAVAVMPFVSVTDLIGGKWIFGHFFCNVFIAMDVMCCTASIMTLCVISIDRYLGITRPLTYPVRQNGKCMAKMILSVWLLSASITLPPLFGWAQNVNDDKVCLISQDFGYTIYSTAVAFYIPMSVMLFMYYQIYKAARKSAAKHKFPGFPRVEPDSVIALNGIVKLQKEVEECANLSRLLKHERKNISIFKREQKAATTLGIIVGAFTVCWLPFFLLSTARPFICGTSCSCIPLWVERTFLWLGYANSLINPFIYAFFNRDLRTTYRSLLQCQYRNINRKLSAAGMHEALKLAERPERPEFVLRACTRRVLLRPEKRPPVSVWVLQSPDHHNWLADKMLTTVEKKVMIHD

CCC(CN1CCN(c2ccccc2OC)CC1)NCCCOc1c(C)cccc1C.Cl.Cl (centres unmarked) [HBK-10, N-(3-(2,6-dimethylphenoxy)propyl)-1-(4-(2-methoxyphenyl)piperazin-1-yl)butan-2-amine dihydrochloride]
Ki (human 5-HT7 receptor): 6.31 µM | Reduction of immobility in the forced swim test (mice [1]; 1.25 mg/kg ip, WAY-100635 experiment, no pretreatment): 35.7% | Reduction of immobility in the forced swim test (mice [1]; 1.25 mg/kg ip, pCPA experiment, no pretreatment): 28.1% | Reduction of immobility in the forced swim test (mice [1]; 1st of five values, dose range 1.25–10 mg/kg ip, 30 min before test (lowest dose 1.25 mg/kg)): 21.1% | Reduction of immobility in the forced swim test (mice [1]; 2nd of five values, dose range 1.25–10 mg/kg ip, dose not given): 23.5% | Reduction of immobility in the forced swim test (mice [1]; 3rd of five values, dose range 1.25–10 mg/kg ip, dose not given): 26.6% | Reduction of immobility in the forced swim test (mice [1]; 4th of five values, dose range 1.25–10 mg/kg ip, dose not given): 44.2% | Reduction of immobility in the forced swim test (mice [1]; 5th of five values, dose range 1.25–10 mg/kg ip (highest dose 10 mg/kg)): 47.2% | Effect on immobility in the forced swim test, combined administration (mice [1]; HBK-10 0.625 mg/kg combined with bupropion 2.5 mg/kg, ip): did not significantly decrease the immobility | Decrease of immobility in the forced swim test, combined administration (mice [1]; HBK-10 0.625 mg/kg combined with fluoxetine 10 mg/kg, ip): 40.9% | Decrease of immobility in the forced swim test, combined administration (mice [1]; HBK-10 0.625 mg/kg combined with reboxetine 5 mg/kg, ip): 57.7% | Antidepressant-like effect in the forced swim test after pCPA pretreatment (mice [1]; HBK-10 1.25 mg/kg ip after pCPA 200 mg/kg for three days): abolished | Antidepressant-like effect in the forced swim test after WAY-100635 pretreatment (mice [1]; HBK-10 1.25 mg/kg ip, WAY-100635 0.1 mg/kg sc 15 min before): abolished | Active dose in the forced swim test, fold lower than escitalopram (mice [1]; comparator data ref 19, 42): 2 fold | Active dose in the forced swim test, fold lower than reboxetine (mice [1]; comparator data ref 19, 42): 8 fold | Activity in the forced swim test at 0.625 mg/kg (mice [1]; naive mice, 0.625 mg/kg, single administration): inactive | Lowest active dose in the forced swim test (mice [1]; naive mice, single administration): 1.25 mg/kg | % of Animals That Fell from Rotating Rod (mice [2]; 40 mg/kg ip): 29% | % of Animals That Fell from Rotating Rod (mice [2]; 45 mg/kg ip): 63% | % of Animals That Fell from Rotating Rod (mice [2]; 60 mg/kg ip): 86% | TD50 at 30 min (Chimney test in mice): 21.7 mg/kg | % of Animals That Did Not Climb out the Chimney (mice [3]; 10 mg/kg ip): 20% | % of Animals That Did Not Climb out the Chimney (mice [3]; 20 mg/kg ip): 40% | % of Animals That Did Not Climb out the Chimney (mice [3]; 30 mg/kg ip): 64% | % of Animals That Did Not Climb out the Chimney (mice [3]; 40 mg/kg ip): 87% | % of Animals That Did Not Climb out the Chimney (mice [3]; 60 mg/kg ip): 90%
